Experimental data taken from article PMC9112550, “Optimization of the antimicrobial peptide Bac7 by deep mutational scanning” (BMC Biology, 2022).
“And” between values parts separate entries of the source, which are not always exact repeats. Equal values may be shown once. Where no end group is shown, it is not given here.

Tests used:
[1] = tested on: mouse red blood cells; assay: Hemolysis assay; format: cell-based; conditions: 1 h, 37°C, DPBS, relative to Triton-X100 lysis control, triplicates
Protocol: Mouse blood was obtained from the ETH Phenomics Center. The erythrocytes were isolated by centrifugation at 500 × g for 10 min and removal of the blood plasma. The cells were washed three times by gently resuspending them in an equal volume of DPBS followed by centrifugation. After the last resuspension, the cells were diluted 1:50 in DPBS. For the hemolysis assay, a log2-serial dilution of each peptide was prepared as described for the MIC but using DPBS and 96-well plates (U-bottom, PP, 650201, Greiner) with a final volume of 100 μl. As lysis control, 2.5% Triton-X100 in DPBS was used in well 10, well 11 served as non-treated control (no peptide added), and well 12 as blank. To each well of the dilution plate, 100 μl of the red blood cells suspension was added. The plate was incubated for 1 h at 37°C. After incubation, the plate was centrifuged at 500 × g for 10 min and 100 μl of the supernatant was transferred to a clean 96-well plate (F-bottom, PS, 655101, Greiner). The absorbance was measured at 540 nm using an Infinite M1000 PRO plate reader (Tecan) and corrected by the measurements from the untreated wells. The lysis of each peptide concentration was expressed relative to the lysis control (set as 100% lysis). The hemolysis assay was performed in biological triplicates.

[2] = tested on: E. coli TOP10; assay: Deep mutational scanning, site-saturation Bac7_1-23 library, intracellular self-screening with NGS; format: cell-based; conditions: intracellular expression
Protocol: A focused strategy was pursued to generate diversity at positions 5, 18, 19, and 20 in the Bac7_1-23 peptide. […] Degeneration was introduced by using the QuikChange technique, amplifying the pBAD plasmid containing the Bac7_1-23 gene using a mixture of 20 oligonucleotides (Additional file 1: Table S1) at a final concentration of 0.3 μM and Phusion® High-Fidelity PCR Master Mix in HF buffer. The amplification was performed using 20 cycles of 98°C for 10 s, 60°C for 15 s, and 72°C for 10 s. The PCR product was treated with the enzyme Dpn1 to remove the template plasmid and subsequently purified. The purified product was used to transform 20 μl of CloneCatcher™ Gold DH5G Electrocompetent E. coli (Genlantis, Burlington, USA) cells using electroporation.
To assess the antimicrobial activity of multiple peptides in parallel when expressed intracellularly in E. coli TOP10, previously prepared aliquots containing E. coli plasmid libraries created by either random mutagenesis or site-saturation mutagenesis were used. For both approaches, three aliquots containing approximately 500 million cells each of E. coli TOP10 harboring peptide-encoding DNA sequences on the pBAD plasmid were thawed and added to three 1-l baffled shake flasks containing 100 ml of LB medium + 100 μg ml^−1 carbenicillin. The cultures were grown for roughly 7 h at 37°C.

[3] = tested on: E. coli TOP10; assay: Membrane damage assay in MHB I (GFP loss, PI uptake); format: cell-based; conditions: not cation-adjusted, n = 3
Protocol: For membrane damage assays, the bacterial strain […] [pSEVA271-sfGFP] and the peptide dilutions were prepared as described for the MIC measurements but by scaling all volumes 5-fold and using 96-well plates (polypropylene, U-bottom, 650201, Greiner, Kremsmünster, AT) with a final assay volume of 200 μl. The bacterial strain suspension was furthermore supplemented with a final concentration of 1 μg ml^−1 propidium iodide (PI, from a 1 mg ml^−1 stock in water) just before pipetting the assay. After 1 h incubation at room temperature, the cell membrane integrity was assessed by flow cytometry using a Fortessa Analyzer (BD Biosciences) and appropriate filters for GFP and PI (488-nm laser with 530/30-nm bandpass filter and 579-nm laser with 610/20-nm bandpass filter). […]
Fig. S8 | Membrane damage assay. Membrane damage assays measuring PI uptake of the cells (% cells are given that gained PI fluorescence) and GFP loss (% of the cells are given that lost sfGFP fluorescence) when incubating E. coli TOP10 cells with various peptide concentrations in MHB I (n=3; error bars = 1SD).Fig. S7 | Interactions observed per amino acid residue. For each amino acid residue, the occurrences of interactions at all positions were counted. No antagonistic effect was detected for glutamate and valine residues. No interaction was detected for serine. […]

[4] = tested on: E. coli ribosomes; conditions: S30 extract E. coli ATCC 25922; firefly luciferase mRNA; 800 to 0.08 μM; 1 h, 37°C; n = 9; p = 0.15, Wilcoxon, not significant
Protocol: To measure inhibition of the E. coli ATCC 29522 ribosome, an S30 extract from E. coli cells was purified. E. coli ATCC 25922 was grown in 2 l of liquid LB medium at 37°C and 160 rpm. Cells were harvested in the logarithmic phase by centrifugation for 30 min at 3500 × g at 4°C. The cell pellet was washed with ice-cold S30 buffer (20 mM Tris-acetate pH 8.2, 60 mM potassium acetate, 14 mM magnesium acetate, and 3 mM β-mercaptoethanol) and pelleted again for 30 min at 3500 × g at 4°C. The resulting cell pellet was shock-frozen in liquid nitrogen and stored at −80°C until further processing. Frozen E. coli cells were thawed on ice and resuspended in four times their volume ice-cold S30 buffer. The resulting cell suspension was lysed by passing it twice through a microfluidizer processor (Microfluidics, Westwood, MA, USA) at 25,000 lb/in^2 and the cell lysate was immediately amended with DTT to a final concentration of 1 mM. The lysate was then centrifuged twice for 30 min at 30,000 × g at 4°C. After each centrifugation cycle, the clear supernatant was carefully decanted and the pellet discarded. Aliquots of S30 extract were shock-frozen in liquid nitrogen and stored at −80°C.
Sealed plates were incubated for 1 h at 37°C and stopped on ice before adding 75 μl of luciferase assay reagent (Promega) to each reaction. […]

[5] = tested on: E. coli TOP10; assay: Membrane damage assay in MHB II (GFP loss, PI uptake); format: cell-based; conditions: n = 3
[6] = approximately 16-fold above its MIC (~35 μM)
[7] = at the MIC up to 8-fold higher concentrations

RRIRIRPPRLPRPRPRPYFMPRP [Bac7PS]
Hemolysis of mouse red blood cells ([1]; 1xMIC (MIC measured for E. coli ATCC 25922)): < 4% and 3.1% | Hemolysis of mouse red blood cells ([1]; 4xMIC (MIC measured for E. coli ATCC 25922)): < 7% and 3.8% | antimicrobial activity in the library [2]: the most active | membrane damage, compared with MHB II [3]: more pronounced | mean increase of activity on E. coli ribosomes (translation inhibition IC50) compared to Bac7_1-23 [4]: 10% | PI-positive cells [5, 6]: ~ 3% | cells that lost GFP [5, 6]: 26% | PI-positive cells [5, 7]: ~ 1% | cells that retained GFP levels [5, 7]: ~ 99%
